From US6642238B2, “Oxazolidinone thioamides with piperazine amide substituents” (Pharmacia and Upjohn Company, priority 2000, dated 2003) come the findings set out here.

Data set [1] concerns Staphylococcus aureus (SAUR 9213). The experiment in a line: MIC by agar dilution, SAUR 9213. It counts as cell-based. Particulars: Staphylococcus aureus, Minimum Inhibitory Concentration, strain SAUR 9213. The source says: (§1) The oxazolidinone antibacterial agents of this invention have useful activity against a variety of organisms. The in vitro activity of compounds of this invention can be assessed by standard testing procedures such as the determination of minimum inhibitory concentration (MIC) by agar dilution as described in “Approved Standard. Methods for Dilution Antimicrobial Susceptibility Tests for Bacteria That Grow Aerobically”, 3rd. ed., published 1993 by the National Committee for Clinical Laboratory Standards, Villanova, Pa., USA. The activity of compounds of this invention against Staphylococcus aureus, Staphylococcus epidermidis, Streptococcus pneumoniae, Streptococcus pyogens, Enterococcus faecalis, Moraxella catarrhalis and H. influenzae is shown in Table 1.

Data set [2] concerns Staphylococcus epidermidis (SEPI 30593). The experiment in a line: MIC by agar dilution, SEPI 30593. It counts as cell-based. Particulars: Staphylococcus epidermidis, Minimum Inhibitory Concentration, strain SEPI 30593.
From the text: as §1
A general note: In agar dilution the substance is mixed into plates at graded concentrations.

Data set [3] relates to Enterococcus faecalis (EFAE 12712). The experiment in a line: MIC by agar dilution, EFAE 12712. To be noted: Enterococcus faecalis, Minimum Inhibitory Concentration, strain EFAE 12712. It counts as cell-based.
From the text: as §1

Data set [4] deals with Streptococcus pneumoniae (SPNE 9912). In words: MIC by agar dilution, SPNE 9912. It counts as cell-based. To be noted: Streptococcus pneumoniae, Minimum Inhibitory Concentration, strain SPNE 9912.
From the text: as §1

Data set [5] has as its system Streptococcus pyogens (SPYO 152). The experiment in a line: MIC by agar dilution, SPYO 152. To be noted: Streptococcus, Minimum Inhibitory Concentration, strain SPYO 152. Format: cell-based.
From the text: as §1

Data set [6] has as its system H. influenzae (HINF 30063). In words: MIC by agar dilution, HINF 30063. Format: cell-based. To be noted: Haemophilus influenzae, Minimum Inhibitory Concentration, strain HINF 30063.
From the text: as §1

Data set [7] concerns Enterococcus faecalis (EFAE 9217). The experiment in a line: MIC by agar dilution, EFAE 9217. Format: cell-based. Particulars: Enterococcus faecalis, Minimum Inhibitory Concentration, strain EFAE 9217.
From the text: as §1

Data set [8] deals with Moraxella catarrhalis (MCAT 30607). In words: MIC by agar dilution, MCAT 30607. To be noted: Moraxella catarrhalis, Minimum Inhibitory Concentration, strain MCAT 30607. Format: cell-based.
From the text: as §1

Values after ≈ are worked out from the molar mass of the structure shown.

Regarding `CCC(=S)NC[C@H]1CN(c2ccc(N3CCN(C(=O)C4(O)CC4)CC3)c(F)c2)C(=O)O1` [EX 14, N-{[(5S)-3-(3-fluoro-4-{4-[(1-hydroxycyclopropyl)carbonyl]-1-piperazinyl}phenyl)-2-oxo-1,3-oxazolidin-5-yl]methyl}propanethioamide], the melting point (usually the temperature, or range, at which the solid turns liquid) is 185 to 186 °C (dec.). In data set [1], this compound showed an MIC of 4 µg/mL (≈ 8.88 µM). Also, the MIC in [2] came out at 1 µg/mL (≈ 2.22 µM). Further, the MIC in data set [3] worked out at 2 µg/mL (≈ 4.44 µM). In data set [4], this compound had an MIC of 0.5 µg/mL (≈ 1.11 µM). The same compound registered an MIC in [5] of 1 µg/mL (≈ 2.22 µM). This compound also showed an MIC in data set [6] of 32 µg/mL (≈ 71 µM). Moreover, in data set [7], the MIC worked out at 1 µg/mL (≈ 2.22 µM). The compound further showed an MIC in data set [8] of 2 µg/mL (≈ 4.44 µM).

As to `CCC(=S)NC[C@H]1CN(c2ccc(N3CCN(C(=O)COc4ccccc4)CC3)c(F)c2)C(=O)O1` [EX 15, N-[((5S)-3-{3-fluoro-4-[4-(2-phenoxyacetyl)-1-piperazinyl]phenyl}-2-oxo-1,3-oxazolidin-5-yl)methyl]propanethioamide], the melting point was in the range of 171 to 172 °C. In addition, the MIC in [1] stood at 2 µg/mL (≈ 4 µM). The same compound registered an MIC in data set [2] of 0.5 µg/mL (≈ 0.999 µM). In [3], this compound displayed an MIC of 1 µg/mL (≈ 2 µM). The MIC in data set [4] came out at 0.25 µg/mL (≈ 0.499 µM). Besides, in data set [5], the MIC was determined as 0.5 µg/mL (≈ 0.999 µM). This compound also returned an MIC in data set [6] of 32 µg/mL (≈ 63.9 µM). In [7], this compound showed an MIC of 0.5 µg/mL (≈ 0.999 µM). This compound also yielded an MIC in data set [8] of 2 µg/mL (≈ 4 µM).

Take `CCC(=S)NC[C@H]1CN(c2ccc(N3CCN(C(=O)[C@@H](O)CO)CC3)c(F)c2)C(=O)O1` [EX 16, N-({(5S)-3-[3-fluoro-4-[4-((2S)-2,3-dihydroxypropanoyl)-1-piperazinyl]phenyl]-2-oxo-1,3-oxazolidin-5-yl}methyl)propanethioamide]: the melting point is 142 °C (dec.). In addition, the MIC in data set [1] is 4 µg/mL (≈ 8.8 µM). In data set [2], this compound yielded an MIC of 0.5 µg/mL (≈ 1.1 µM). In data set [3], the MIC is 1 µg/mL (≈ 2.2 µM). The same compound displayed an MIC in [4] of 0.5 µg/mL (≈ 1.1 µM). The MIC in [5] came to 0.5 µg/mL (≈ 1.1 µM). The MIC in [6] stood at 8 µg/mL (≈ 17.6 µM). This compound gave an MIC in [7] of 0.5 µg/mL (≈ 1.1 µM). Also, the MIC in data set [8] worked out at 2 µg/mL (≈ 4.4 µM).

For `CCC(=S)NC[C@H]1CN(c2ccc(N3CCN(C(=O)[C@H](O)CO)CC3)c(F)c2)C(=O)O1` [EX 17, N-({(5S)-3-[3-fluoro-4-[4-((2R)-2,3-dihydroxypropanoyl)-1-piperazinyl]phenyl]-2-oxo-1,3-oxazolidin-5-yl}methyl)propanethioamide], the melting point was 132 °C (dec.). The MIC in data set [1] stood at 4 µg/mL (≈ 8.8 µM). Moreover, the MIC in data set [2] stood at 0.5 µg/mL (≈ 1.1 µM). The MIC in data set [3] is 1 µg/mL (≈ 2.2 µM). For the same compound, in [4], the MIC stood at 0.25 µg/mL (≈ 0.55 µM). Moreover, in data set [5], the MIC is 0.5 µg/mL (≈ 1.1 µM). This compound also showed an MIC in data set [6] of 8 µg/mL (≈ 17.6 µM). The compound further gave an MIC in [7] of 0.5 µg/mL (≈ 1.1 µM). Moreover, in [8], the MIC was found to be 2 µg/mL (≈ 4.4 µM).

In the case of `CCC(=S)NC[C@H]1CN(c2ccc(N3CCN(C(=O)[C@@H](O)Cc4ccccc4)CC3)c(F)c2)C(=O)O1` [EX 19, N-[((5S)-3-{3-fluoro-4-[4-((2S)-2-hydroxy-3-phenylpropanoyl)-1-piperazinyl]phenyl}-2-oxo-1,3-oxazolidin-5-yl)methyl]propanethioamide], the melting point lay in the range of 174 to 175 °C. Further, the MIC in [1] turned out to be 2 µg/mL (≈ 3.89 µM). For the same compound, in data set [2], the MIC was found to be 2 µg/mL (≈ 3.89 µM). In addition, the MIC in [3] is 2 µg/mL (≈ 3.89 µM). The compound further displayed an MIC in data set [4] below 0.5 µg/mL. Moreover, in data set [5], the MIC was found to be 1 µg/mL (≈ 1.94 µM). The MIC in data set [6] was above 64 µg/mL. Besides, the MIC in [7] came to 2 µg/mL (≈ 3.89 µM). Moreover, in data set [8], the MIC stood at 8 µg/mL (≈ 15.5 µM).

For `CCC(=S)NC[C@H]1CN(c2ccc(N3CCN(C(=O)[C@H](O)Cc4ccccc4)CC3)c(F)c2)C(=O)O1` [EX 20, N-[((5S)-3-{3-fluoro-4-[4-((2R)-2-hydroxy-3-phenylpropanoyl)-1-piperazinyl]phenyl}-2-oxo-1,3-oxazolidin-5-yl)methyl]propanethioamide], the melting point is 128 to 130 °C (dec.). In data set [1], this compound came in with an MIC of 1 µg/mL (≈ 1.94 µM). Also, the MIC in [2] came to 1 µg/mL (≈ 1.94 µM). In [3], this compound gave an MIC of 1 µg/mL (≈ 1.94 µM). In data set [4], this compound registered an MIC below 0.5 µg/mL. The MIC in data set [5] was 1 µg/mL (≈ 1.94 µM). In data set [6], this compound yielded an MIC of 64 µg/mL (≈ 124 µM). Also, the MIC in data set [7] amounted to 1 µg/mL (≈ 1.94 µM). The MIC in data set [8] was 4 µg/mL (≈ 7.77 µM).
